Measurements from patent US20030186967A1, “Acylresorcinol derivatives are selective vitronectin receptor inhibitors” (American Home Products Corporation, priority 1998, published 2003).
Where a name gives a salt, the structure may show the parent alone. Read-outs that look alike come from different tables or passages of the source. Ends that are not written are not given here.

Key:
[1] = target: T1, Vitronectin receptor αVβ3 (Homo sapiens, UniProt P05106+P06756); assay: Vitronectin Receptor αVβ3 Binding Assay; details: for IC50: read-out: VnR (IC50μM)
T1 construct: expressed in transfected cells; host or cells: 512P5 cells (plasma membrane preparation)
T1 sequence (P06756 31-889 limits assumed): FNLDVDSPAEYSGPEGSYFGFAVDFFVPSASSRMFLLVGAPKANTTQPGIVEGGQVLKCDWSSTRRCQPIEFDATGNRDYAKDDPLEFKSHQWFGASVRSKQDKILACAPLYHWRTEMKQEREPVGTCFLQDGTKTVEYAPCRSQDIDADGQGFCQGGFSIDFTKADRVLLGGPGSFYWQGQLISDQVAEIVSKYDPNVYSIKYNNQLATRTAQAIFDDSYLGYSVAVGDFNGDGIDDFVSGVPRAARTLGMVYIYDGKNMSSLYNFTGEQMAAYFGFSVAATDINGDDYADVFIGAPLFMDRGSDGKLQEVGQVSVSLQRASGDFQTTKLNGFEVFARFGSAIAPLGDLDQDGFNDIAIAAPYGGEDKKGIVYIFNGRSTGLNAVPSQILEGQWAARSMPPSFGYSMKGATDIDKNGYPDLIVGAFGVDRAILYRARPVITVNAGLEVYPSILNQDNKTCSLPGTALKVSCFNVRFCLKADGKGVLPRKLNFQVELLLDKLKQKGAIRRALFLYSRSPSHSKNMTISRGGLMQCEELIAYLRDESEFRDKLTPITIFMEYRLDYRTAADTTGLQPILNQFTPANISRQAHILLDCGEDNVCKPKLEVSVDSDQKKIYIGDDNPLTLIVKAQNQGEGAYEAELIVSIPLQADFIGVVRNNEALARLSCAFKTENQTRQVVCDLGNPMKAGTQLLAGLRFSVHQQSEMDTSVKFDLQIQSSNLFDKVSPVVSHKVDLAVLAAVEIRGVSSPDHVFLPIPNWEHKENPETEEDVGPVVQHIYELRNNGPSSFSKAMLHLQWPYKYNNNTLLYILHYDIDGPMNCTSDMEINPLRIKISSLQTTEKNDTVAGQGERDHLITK
T1 sequence (P06756 891-1048 partner limits assumed): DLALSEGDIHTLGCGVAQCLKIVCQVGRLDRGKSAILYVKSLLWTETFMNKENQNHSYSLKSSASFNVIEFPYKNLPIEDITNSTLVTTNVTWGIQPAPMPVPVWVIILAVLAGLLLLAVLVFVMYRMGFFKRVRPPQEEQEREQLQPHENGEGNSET
T1 sequence (P05106 27-788): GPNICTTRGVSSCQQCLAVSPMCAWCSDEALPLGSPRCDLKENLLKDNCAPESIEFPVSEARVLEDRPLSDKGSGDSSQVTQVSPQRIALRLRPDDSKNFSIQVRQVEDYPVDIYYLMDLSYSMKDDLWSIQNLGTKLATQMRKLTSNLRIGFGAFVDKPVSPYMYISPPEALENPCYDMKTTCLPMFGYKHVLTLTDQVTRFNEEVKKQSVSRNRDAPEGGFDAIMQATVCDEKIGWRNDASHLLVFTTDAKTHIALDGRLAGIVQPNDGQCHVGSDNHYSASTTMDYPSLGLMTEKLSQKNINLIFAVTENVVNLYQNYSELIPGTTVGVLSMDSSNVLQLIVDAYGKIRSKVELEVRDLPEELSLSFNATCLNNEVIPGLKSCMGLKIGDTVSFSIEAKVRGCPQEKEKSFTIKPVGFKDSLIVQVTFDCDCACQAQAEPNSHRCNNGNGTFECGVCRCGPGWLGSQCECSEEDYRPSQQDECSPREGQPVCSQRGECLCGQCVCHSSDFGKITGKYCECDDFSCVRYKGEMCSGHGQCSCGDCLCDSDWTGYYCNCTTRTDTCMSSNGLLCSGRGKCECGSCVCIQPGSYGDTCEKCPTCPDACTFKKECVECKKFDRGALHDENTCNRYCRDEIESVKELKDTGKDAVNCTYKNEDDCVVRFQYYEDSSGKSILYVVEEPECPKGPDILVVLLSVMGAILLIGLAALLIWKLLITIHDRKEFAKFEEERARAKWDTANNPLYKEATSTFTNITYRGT

[2] = tested on: thyro-parathyroidectomized (TPTX) rats; assay: PTH-induced hypercalcemia of thyroparathyroidectomized male rats; format: in vivo, rat; details: 100 mg/kg; for inhibition in vivo at 100 mg/kg: Rattus norvegicus, sc
Description: Effects of test compounds on PTH-induced hypercalcemia of thyroparathyroidectomized male rats
Male thyro-parathyroidectomized (TPTX) rats (Charles River) were randomly assigned to groups of 7 rats/group. Following a baseline serum calcium determination an Alzet 1003D minipump (Alza Corporation, Palo Alto, Calif.) loaded with 0.3 mg/ml PTH (Bachem, Philadelphia, Pa.) was implanted subcutaneously in each rat. For evaluation of prophylactic effects of a test drug, another minipump with appropriate concentration of the test drug solution was implanted subcutaneously at a site away from PTH minipump. Alternatively, test drugs were administered by oral gavage as a solution or uniform suspension in an appropriate medium depending on the physical properties of the test compound. A group of 7 unimplanted TPTX rats was set aside as a normal control group. Twenty hours after minipump implantation blood was collected from each rat to confirm the presence of hypercalcemia (judged by elevation of serum calcium levels, 2 SD>normal non-implanted level). At various intervals between 0.5 and 24 hours after dosing (usually one to three time points), blood was collected from each rat and the serum evaluated for total calcium. Serum calcium levels were measured using the Nova 7+7 calcium auto analyzer spectrophotometrically using the Sigma test kit (#587A). Test results were determined by the difference in serum calcium between vehicle and treatment group following PTH administration, using a one-way analysis of variance with Dunnett's test or other multiple comparison methods.

αVβ3 integrin = target: T2, αVβ3 integrin (Homo sapiens, UniProt P05106+P06756); assay: Osteopontin-αVβ3 Cell Attachment Assay; format: cell-based
T2 construct: αVβ3-expressing cell lines are maintained by standard tissue culture techniques; endogenous in cells; host or cells: αVβ3-expressing cell lines
T2 sequence (P06756 31-889 limits assumed): as the sequence (P06756 31-889 limits assumed) above
T2 sequence (P06756 891-1048 partner limits assumed): as the sequence (P06756 891-1048 partner limits assumed) above
T2 sequence (P05106 27-788): as the sequence (P05106 27-788) above
Description: Osteopontin-αVβ3 Cell Attachment Assay The purpose of this assay is to measure the effect of various compounds on the RGD-dependent attachment of cells to osteopontin mediated by the αVβ3 integrin. […] Following the blocking period, wells are aspirated and washed once with D-PBS. Cell Suspension αVβ3-expressing cell lines are maintained by standard tissue culture techniques. […] The cells are pelleted by low-speed centrifugation and washed three times with 0.5 mg/mL trypsin inhibitor in D-PBS (Sigma). The final cell pellet is resuspended in cell suspension media at a concentration of 10^6 cells/mL. Attachment Assay Incubation: […] of diluted test compound is added to osteopontin-coated wells (in triplicate) followed by […] of cell suspension; background cell attachment is determined in uncoated wells. The plate is incubated at 25° C. in a humidified air atmosphere for 1.5 hours. Following the incubation period, the wells are gently aspirated and washed once with D-PBS. Cell Number Detection: The number of cells attached is determined by an MTT dye conversion assay (Promega) according to the manufacturer's instructions. Briefly, MTT dye is diluted in cell suspension media (15:85) and […] is added to each well. […] The assay plates are covered and incubated at 37° C. in a humidified air atmosphere overnight. […] Reference Compounds Various […]

osteoclasts = assay: Osteoclast Pitting Assay; format: cell-based, rat
Description: The assay is conducted as described in Murrills and Dempster (1990). Briefly, 4×4×0.2 mm slices of devitalized bovine cortical bone are numbered, placed in the wells of 96-well culture plates and wetted with 100 ul of Medium 199 containing Hanks salts, 10 mM HEPES, pH 7.0 (Medium 199/Hanks). Bone cell suspensions containing osteoclasts are prepared by mincing the long bones of neonatal rats (Sprague-Dawley, 4-6 days old) in Medium 199/Hanks. 100 uL of the suspension is then plated onto each slice and incubated 30 minutes to allow osteoclasts to adhere. The slices are rinsed to remove non-adherent cells and incubated 24 h in Medium 199 containing Earle's salts, 10 mM HEPES and 0.7 g/L NaHCO3, which equilibrates at pH 6.9 in a 5% CO2 atmosphere. At this pH the adherent osteoclasts excavate an adequate number of resorption pits for assay purposes. Slices are fixed in 2.5% glutaraldehyde and osteoclasts counted following tartrate-resistant acid phosphatase staining. […] All cells are stripped from the slice by sonication on 0.25M NH4OH and the resorption pits formed by the osteoclasts during the experiment stained with toluidine blue. Resorption pits are quantified by manually counting.
The experiments are conducted according to a block design with osteoclasts from each animal exposed to each treatment. Three replicate slices are used per treatment per animal, such that a total of 96 slices are examined for an experiment involving four animals and eight treatments (including control). Several parameters are recorded on a “per slice” basis: number of pits, number of osteoclasts, number of pits per osteoclast, number of fibroblast-like bone cells. SAS or JMP statistical software is used for statistical analysis. […] IC50s are calculated for active compounds using dose-response curves.
Reference Compound: Rat calcitonin.
Osteoclasts are responsible for the bone loss that occurs in the onset of osteoporosis and anti-resorptive drugs directed against the osteoclast are a requirement for patients losing bone.

Compound | IC50 [1] [µM] | also measured
O=C(NCCOc1ccc(C(=O)NC[C@H](NC(=O)OCc2ccccc2)C(=O)O)c(O)c1)NCc1ccccc1Cl [Example 267, (2S)-2-{[(benzyloxy)carbonyl]amino}-3-({4-[2-({[(2-chlorobenzyl)amino]carbonyl}-amino)ethoxy]-2-hydroxybenzoyl}amino)propanoic acid] | 10.2 | 
Cc1ccccc1CNC(=O)NCCOc1ccc(C(=O)NC[C@H](NC(=O)OCc2ccccc2)C(=O)O)c(O)c1 [Example 268] | 33.4 | 
O=C(NCCOc1ccc(C(=O)NC[C@H](NC(=O)OCc2ccccc2)C(=O)O)c(O)c1)NCc1ccccc1Br [Example 269, (2S)-2-{[(benzyloxy)carbonyl]amino}-3-({4-[2-({[(2-bromobenzyl)amino]-carbonyl}-amino)ethoxy]-2-hydroxybenzoyl}amino)propanoic acid] | 21.2 | 
O=C(NCCOc1ccc(C(=O)NC[C@H](NC(=O)OCc2ccccc2)C(=O)O)c(O)c1)NCc1ccc(Cl)cc1Cl [Example 270, (2S)-2-{[(benzyloxy)carbonyl]amino}-3-({4-[2-({[(2,4-dichlorobenzyl)amino]-carbonyl}amino)ethoxy]-2-hydroxybenzoyl}amino)propanoic acid] | 21.7 | 
Nc1ccccc1CNC(=O)NCCOc1ccc(C(=O)NC[C@H](NC(=O)OCc2ccccc2)C(=O)O)c(O)c1 [Example 271, (2S)-3-({4-[2-({[(2-aminobenzyl)amino]carbonyl}amino)ethoxy]-2-hydroxybenzoyl}-amino)-2-{[(benzyloxy)carbonyl]amino}propanoic acid] | 13.7 | 
O=C(NCCOc1ccc(C(=O)NC[C@H](NC(=O)OCc2ccccc2)C(=O)O)c(O)c1)NCc1ccccn1 [Example 272, (2S)-2-{[(benzyloxy)carbonyl]amino}-3-({2-hydroxy-4-[2-({[(pyridin-2-ylmethyl)-amino]carbonyl}amino)ethoxy]benzoyl}amino)propanoic acid] | 10.6 | 
CCOC(=O)[C@H](CNC(=O)c1ccc(OCCNc2ncccn2)cc1O)NS(=O)(=O)c1ccccc1 [Example 273] |  | TPTX (% inhibition) ([2]; s.c.): 57%
O=C(N[C@@H](CNC(=O)c1ccc(OCCNC2=NCCCN2)cc1O)C(=O)O)OCc1ccccc1 [Example 278, 2(S)-Benzyloxycarbonylamino-3-[2-hydroxy-4-[2-(3,4,5,6-tetrahydro-pyrimidin-2-ylamino)ethoxy]benzoylamino]propionic acid hydrochloride] |  | IC50 (αVβ3 integrin): 0.02 µM; IC50 (osteoclasts; Osteoclast Pitting Assay, neonatal rat osteoclasts on bovine cortical bone slices, read-out: IC50 (μM) Bone Pitting): 0.5 µM
CCOC(=O)CC(NC(=O)c1ccc(OCCNC(=N)N)cc1O)c1ccccc1 (centres unmarked) [Example 279, 3-[4-(2-Guanidinoethoxy)-2-hydroxy-benzoylamino]-3-phenylpropanoic acid ethyl ester hydrochloride] | 0.013 | inhibition in vivo at 100 mg/kg [2]: 59%
CCOC(=O)CC(NC(=O)c1ccc(OCCNc2ncccn2)cc1O)c1cccnc1 (centres unmarked) [Example 281, 3-[2-Hydroxy-4-[2-(pyrimidin-2ylamino)ethoxy]-benzoylamino]-3-pyridine-3-ylpropionic acid ethyl ester] |  | VnR (IC50μM) [1]: inactive
O=C(O)CC(NC(=O)c1ccc(OCCNC2=NCCCN2)cc1O)c1cccnc1 (centres unmarked) [Example 282, 3-[2-Hydroxy-4-[2-(3,4,5,6-tetrahydropyrimidine-2ylamino)-ethoxy]benzoylamino]-3-pyridin-3-ylpropionic acid] |  | VnR, % @ 100 ([1]; @ 100): −42% @ 100; IC50 (αVβ3 integrin): 33 µM
CCOC(=O)CC(NC(=O)c1ccc(OCCNC2=NCCCN2)cc1O)c1cccnc1 (centres unmarked) [Example 283, 3-[2-Hydroxy-4-[2-(3,4,5,6-tetrahydropyrimidin-2-ylamino)ethoxy]benzoylamino]-3-pyridin-3-ylpropionic acid ethyl ester dihydrocloride] | 123 | 
N=C(N)NCCOc1ccc(C(=O)NC(CC(=O)O)c2cccnc2)c(O)c1 (centres unmarked) [Example 285, 3-[4-(2-Guanidino-ethoxy)-2-hydroxybenzoyl-amino]-3-pyridin-3-yl-propanoic acid] | 5 | IC50 (αVβ3 integrin): 56 µM
(2S)-3-({2-hydroxy-4-[2-(pyrimidin-2-ylamino)ethoxy]benzoyl3 amino)-2-{[(4-methoxyanilino)carbonyl]amino}propanoic acid [Example 74] | > 1 | 
(2S)-3-({2-hydroxy-4-[2-(pyrimidin-2-ylamino)ethoxy]benzoyl}amino)-2-{[1-naphthylamino)carbonyl]amino}propanoic acid [Example 91] | > 1 | 
Calcitonin: anti-resorptive used in the clinic; rat calcitonin is the reference compound of the pitting assay (CGNLSTCMLGTYTQDLNKFHTFPQTSIGVGAP; ends and bridges not checked; cysteine pairing not given here; UniProt P01257 85-116, looked up) [reference compound] |  | osteoclast inhibitory activity (osteoclasts): significant osteoclast inhibitory activity
GRGESP [reference compound] |  | IC50 (μM) ([1]; reference peptides, 125I-Echistatin 50 pM, 512P5 (αVβ3-overexpressing) cell membranes): inactive at 100 μM

More lines, main results first:

IC50 [1] [µM] | Compound | also measured
2.8 | O=C(O)CC(NC(=O)c1ccc(OCCNc2ncccn2)cc1O)c1cccnc1 (centres unmarked) [Example 286, 3-[2-hydroxy-4-[2-(pyrimidin-2-ylamino)-ethoxy]benzoylamino]-3-pyridin-3-yl-propanoic acid] | IC50 (αVβ3 integrin): 86 µM
0.26 | O=C(O)CC(NC(=O)c1ccc(OCCNc2ncccn2)cc1O)c1ccccc1 (centres unmarked) [Example 287, 3-[2-hydroxy-4-[2-(pyrimidin-2-ylamino)-ethoxy]benzoyl-amino]-3-phenyl-propanoic acid hydrochloride] | 
0.003 | CCOC(=O)CC(NC(=O)c1ccc(OCCNc2ncccn2)cc1O)c1ccccc1 (centres unmarked) [Example 288, 3-[2-hydroxy-4-[2-(pyrimidin-2-ylamino)-ethoxy]benzoyl-amino]-3-phenyl-propanoic acid ethyl ester] | IC50 (osteoclasts; Rattus norvegicus, Osteoclast, read-out: bone pitting IC50): 0.44 µM
0.44 | O=C(O)CC(NC(=O)c1ccc(OCCNC2=NCCCN2)cc1O)c1ccccc1 (centres unmarked) [Example 291, 3-[2-hydroxy-4-[2-(3,4,5,6-tetrahydropyrimidin-2-ylamino)ethoxy]-benzoylamino]-3-phenyl-propanoic acid] | IC50 (αVβ3 integrin): 28 µM; inhibition in vivo at 100 mg/kg [2]: 41%
0.115 | CCOC(=O)CC(NC(=O)c1ccc(OCCNC2=NCCCN2)cc1O)c1ccccc1 (centres unmarked) [Example 292, 3-[2-hydroxy-4-[2-(3,4,5,6-tetrahydropyrimidin-2-ylamino)ethoxy]-benzoylamino]-3-phenyl-propanoic acid ethyl ester hydrochloride] | inhibition in vivo at 100 mg/kg [2]: 111%
0.0018 | NC(CNC(=O)c1ccc(OCCNC2=NCCCN2)cc1O)C(=O)O (centres unmarked) [Example 295, 2-Amino-3-[2-hydroxy-4-[2-(3,4,5,6-tetra-hydropyrimidin-2-ylamino)ethoxy]-benzoylamino]propionic acid dihydrochloride] | 
